According to patent US20260028326A1, “COMPOUND BASED ON ISOINDOLINE-SUBSTITUTED GLUTARIMIDE BACKBONE AND USE THEREOF” (GLUETACS THERAPEUTICS (SHANGHAI) CO., LTD., priority 2022, published 2026):
pIC50: −log10 of the molar value.

Tests used:
[1] = biological target: human Cereblon WT GST-tagged protein (Homo sapiens (Human), UniProt Q96SW2); assay: CRBN-binding affinity, HTRF (CEREBLON BINDING kit)
Outline: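 GST-tagged human WT Cereblon incubated with compound, then Thalidomide-Re tracer and anti-GST Eu antibody added. Displacement read by HTRF, reported as CRBN binding inhibition rate against blank control wells without protein.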

IKZF1 protein = IKZF1 protein (Homo sapiens (Human), UniProt Q13422+Q96SW2); assay: Western-blot assay of substrate protein degradation in hPBMC, IKZF1; assay type: cell-based; settings: hPBMC cells, compound 500 nM, 24 hours, Western blot
Procedure: (§1) After treating the cells with the compounds for 24 hours, the cells were collected and lysed using RIPA protein lysate containing phosphatase inhibitors. The lysate was then placed on ice for 30-60 minutes and centrifuged. The supernatant was aspirated as the extracted total cell protein. The protein concentration of the supernatant was determined using the conventional BCA (Bicinchoninic Acid) assay. The supernatant was then mixed with 4×SDS sample loading buffer, denatured at 95° C. for 5 minutes, and then subjected to SDS-PAGE electrophoresis on a polyacrylamide gel, followed by transfer to a nitrocellulose membrane (NC membrane). The membrane was blocked with blocking buffer at room temperature for 1-2 hours, and then antibody incubation and detection were carried out according to the antibody instructions provided by Cell Signaling Technology.
(§2) Half-Maximal Degradation Concentration value (the drug concentration required for degrading proteins by 50%, abbreviated as DC50) reads method: comparing the gray values of the Western blotting bands for the drug treatment with the gray values of the Western blotting band for the DMSO control, and reading the drug concentration range corresponding to the gray value of the Western blotting bands for the drug treatment which is equal to half of the gray value of the Western blotting band for the DMSO control.
(§3) DC50 value could also be calculated as follows: using software ImageJ to quantify the gray values of the Western blotting bands for the drug treatment, fitting the relationship curve between drug concentrations and gray values, and from the fitted curve, calculating the drug concentration corresponding to half of the gray value of the Western blotting band for the DMSO control.

GSPT1 protein = GSPT1 protein (Homo sapiens (Human), UniProt P15170+Q96SW2); assay: Western-blot assay of substrate protein degradation in hPBMC, GSPT1; assay type: cell-based; settings: hPBMC cells, compound 500 nM, 24 hours, Western blot
Procedure: as §1, §2, §3

IKZF3 protein = IKZF3 protein (Homo sapiens (Human), UniProt Q96SW2+Q9UKT9); assay: Western-blot assay of substrate protein degradation in hPBMC, IKZF3; assay type: cell-based; settings: hPBMC cells, compound 500 nM, 24 hours, Western blot
Procedure: as §1, §2, §3

Chain of IKZF3 protein (Q9UKT9 whole entry): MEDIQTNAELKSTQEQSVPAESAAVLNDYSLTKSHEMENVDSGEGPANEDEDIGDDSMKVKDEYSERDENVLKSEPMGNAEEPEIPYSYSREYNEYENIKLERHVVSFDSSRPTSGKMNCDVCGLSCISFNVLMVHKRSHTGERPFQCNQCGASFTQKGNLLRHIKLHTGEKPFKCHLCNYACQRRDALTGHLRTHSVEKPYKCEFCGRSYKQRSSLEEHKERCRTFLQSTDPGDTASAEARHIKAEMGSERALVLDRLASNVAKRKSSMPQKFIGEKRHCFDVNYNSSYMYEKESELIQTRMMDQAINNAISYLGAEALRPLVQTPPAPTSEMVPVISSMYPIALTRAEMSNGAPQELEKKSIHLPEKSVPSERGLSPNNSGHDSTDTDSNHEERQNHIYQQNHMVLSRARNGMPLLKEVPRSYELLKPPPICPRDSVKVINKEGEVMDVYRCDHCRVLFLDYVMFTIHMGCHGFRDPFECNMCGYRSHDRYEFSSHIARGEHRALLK
Chain of IKZF3 protein (Q96SW2 whole entry): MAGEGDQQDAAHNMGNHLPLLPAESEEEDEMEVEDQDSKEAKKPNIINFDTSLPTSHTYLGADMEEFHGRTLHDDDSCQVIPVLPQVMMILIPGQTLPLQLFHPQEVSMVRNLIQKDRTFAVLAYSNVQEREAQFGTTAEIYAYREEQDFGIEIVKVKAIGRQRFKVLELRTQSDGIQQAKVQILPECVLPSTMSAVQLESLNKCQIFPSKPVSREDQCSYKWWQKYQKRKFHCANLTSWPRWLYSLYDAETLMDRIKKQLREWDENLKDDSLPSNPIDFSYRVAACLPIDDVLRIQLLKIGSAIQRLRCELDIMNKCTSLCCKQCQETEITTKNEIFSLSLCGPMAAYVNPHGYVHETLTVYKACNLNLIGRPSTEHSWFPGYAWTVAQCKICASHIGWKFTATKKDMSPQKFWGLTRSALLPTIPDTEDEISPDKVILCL
Chain of IKZF3 protein (Q16531 whole entry partner): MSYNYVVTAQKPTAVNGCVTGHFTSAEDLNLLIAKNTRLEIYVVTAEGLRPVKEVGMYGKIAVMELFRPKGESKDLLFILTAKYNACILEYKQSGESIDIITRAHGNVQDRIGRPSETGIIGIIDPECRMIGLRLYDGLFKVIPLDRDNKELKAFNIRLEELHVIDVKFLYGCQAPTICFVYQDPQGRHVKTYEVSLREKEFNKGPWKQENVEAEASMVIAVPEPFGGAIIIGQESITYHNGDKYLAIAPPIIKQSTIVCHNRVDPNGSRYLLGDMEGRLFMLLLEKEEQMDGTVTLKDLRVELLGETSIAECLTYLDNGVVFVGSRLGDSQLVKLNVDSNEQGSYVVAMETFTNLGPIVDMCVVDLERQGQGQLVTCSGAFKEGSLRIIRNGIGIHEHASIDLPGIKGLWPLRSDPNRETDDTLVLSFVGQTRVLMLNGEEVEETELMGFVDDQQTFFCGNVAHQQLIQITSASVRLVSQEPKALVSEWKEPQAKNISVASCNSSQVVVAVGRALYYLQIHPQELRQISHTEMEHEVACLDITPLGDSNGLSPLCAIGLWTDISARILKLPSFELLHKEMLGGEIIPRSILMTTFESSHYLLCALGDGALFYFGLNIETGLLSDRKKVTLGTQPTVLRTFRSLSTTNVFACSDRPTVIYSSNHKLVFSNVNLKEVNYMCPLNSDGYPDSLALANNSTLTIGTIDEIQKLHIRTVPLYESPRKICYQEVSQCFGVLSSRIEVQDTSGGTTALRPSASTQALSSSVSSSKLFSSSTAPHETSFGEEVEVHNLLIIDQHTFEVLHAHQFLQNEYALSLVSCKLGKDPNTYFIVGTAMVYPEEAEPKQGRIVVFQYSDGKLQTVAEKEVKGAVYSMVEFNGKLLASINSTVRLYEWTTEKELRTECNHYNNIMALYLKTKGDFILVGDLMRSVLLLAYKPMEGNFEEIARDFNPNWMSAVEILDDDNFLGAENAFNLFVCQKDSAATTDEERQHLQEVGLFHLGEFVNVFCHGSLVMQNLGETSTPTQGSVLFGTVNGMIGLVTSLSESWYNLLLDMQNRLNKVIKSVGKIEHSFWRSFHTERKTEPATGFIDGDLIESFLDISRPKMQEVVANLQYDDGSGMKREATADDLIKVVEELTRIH
Chain of human Cereblon WT GST-tagged protein (Q96SW2 whole entry): as the sequence (Q96SW2 whole entry) above
Chain of IKZF1 protein (Q13422 whole entry): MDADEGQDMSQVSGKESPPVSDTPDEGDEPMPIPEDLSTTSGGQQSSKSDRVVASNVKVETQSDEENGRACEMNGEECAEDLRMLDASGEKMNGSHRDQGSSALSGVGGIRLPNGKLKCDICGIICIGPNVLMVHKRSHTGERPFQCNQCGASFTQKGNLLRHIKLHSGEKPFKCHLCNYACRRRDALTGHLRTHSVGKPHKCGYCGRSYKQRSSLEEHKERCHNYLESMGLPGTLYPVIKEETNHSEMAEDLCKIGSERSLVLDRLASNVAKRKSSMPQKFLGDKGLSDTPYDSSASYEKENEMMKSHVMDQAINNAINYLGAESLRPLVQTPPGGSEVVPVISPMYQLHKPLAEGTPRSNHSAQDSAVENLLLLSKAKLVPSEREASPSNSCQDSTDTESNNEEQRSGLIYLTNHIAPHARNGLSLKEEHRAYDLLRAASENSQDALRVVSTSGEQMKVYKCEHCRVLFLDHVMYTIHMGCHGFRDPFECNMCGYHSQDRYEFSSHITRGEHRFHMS
Chain of IKZF1 protein (Q96SW2 whole entry): as the sequence (Q96SW2 whole entry) above
Chain of IKZF1 protein (Q16531 whole entry partner): as the sequence (Q16531 whole entry partner) above
Chain of GSPT1 protein (P15170 whole entry): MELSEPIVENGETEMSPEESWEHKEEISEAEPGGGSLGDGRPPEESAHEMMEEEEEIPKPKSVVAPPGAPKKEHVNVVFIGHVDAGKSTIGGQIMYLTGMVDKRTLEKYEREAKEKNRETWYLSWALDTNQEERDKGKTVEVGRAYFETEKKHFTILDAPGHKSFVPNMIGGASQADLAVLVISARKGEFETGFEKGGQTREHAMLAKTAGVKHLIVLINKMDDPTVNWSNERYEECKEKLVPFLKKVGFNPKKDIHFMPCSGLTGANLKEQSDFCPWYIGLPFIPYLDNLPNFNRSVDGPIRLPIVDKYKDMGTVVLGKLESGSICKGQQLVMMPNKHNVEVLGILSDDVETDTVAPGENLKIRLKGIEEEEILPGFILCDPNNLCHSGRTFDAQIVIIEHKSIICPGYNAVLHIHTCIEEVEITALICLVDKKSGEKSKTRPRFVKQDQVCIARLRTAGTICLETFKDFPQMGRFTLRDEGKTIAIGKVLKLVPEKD
Chain of GSPT1 protein (Q96SW2 whole entry): as the sequence (Q96SW2 whole entry) above
Chain of GSPT1 protein (Q16531 whole entry partner): as the sequence (Q16531 whole entry partner) above

pIC50 [1]	Compound	residual substrate protein level, IKZF1 (IKZF1 protein)	residual substrate protein level, GSPT1 (GSPT1 protein)	residual substrate protein level, IKZF3 (IKZF3 protein)
6.23	CC1(C)CCC(CN2CC3CC2CN3Cc2ccc3c(c2)CN(C2CCC(=O)NC2=O)C3=O)=C(c2ccc(F)cc2)C1 (stereo not shown) [GT-05401, 3-(5-((5-((4′-fluoro-5,5-dimethyl-3,4,5,6-tetrahydro-[1,1′-biphenyl]-2-yl)methyl)-2,5-diazabicyclo[2.2.1]heptan-2-yl)methyl)-1-oxoisoindolin-2-yl)piperidine-2,6-dione]	B (B represents a residual substrate protein level of >50%)	B (B represents a residual substrate protein level of >50%)	A (A represents a residual substrate protein level of <50%)
6.37	CC1(C)CCC(C(=O)N2CC3CCC2CN3Cc2ccc3c(c2)CN(C2CCC(=O)NC2=O)C3=O)=C(c2ccc(F)cc2)C1 (stereo not shown) [GT-05402, 3-(5-((5-(4′-fluoro-5,5-dimethyl-3,4,5,6-tetrahydro-[1,1′-biphenyl]-2-carbonyl)-2,5-diazabicyclo[2.2.2]octan-2-yl)methyl)-1-oxoisoindolin-2-yl)piperidine-2,6-dione]	B (B represents a residual substrate protein level of >50%)	B (B represents a residual substrate protein level of >50%)	A (A represents a residual substrate protein level of <50%)
6.31	CC1(C)CCC(C(=O)N2CCC3(CC2)CN(Cc2ccc4c(c2)CN(C2CCC(=O)NC2=O)C4=O)C3)=C(c2ccc(F)cc2)C1 (stereo not shown) [GT-05404, 3-(5-((7-(4′-fluoro-5,5-dimethyl-3,4,5,6-tetrahydro-[1,1′-biphenyl]-2-carbonyl)-2,7-diazaspiro[3.5]nonan-2-yl)methyl)-1-oxoisoindolin-2-yl)piperidine-2,6-dione]	B (B represents a residual substrate protein level of >50%)	B (B represents a residual substrate protein level of >50%)	A (A represents a residual substrate protein level of <50%)
6.14	CC1(C)CCC(C(=O)N2CC(=Cc3ccc4c(c3)CN(C3CCC(=O)NC3=O)C4=O)C2)=C(c2ccc(Cl)cc2)C1 (stereo not shown) [GT-05420, 3-(5-((1-(4′-chloro-5,5-dimethyl-3,4,5,6-tetrahydro-[1,1′-biphenyl]-2-carbonyl)azetidin-3-ylidene)methyl)-1-oxoisoindolin-2-yl)piperidine-2,6-dione]	B (B represents a residual substrate protein level of >50%)	A (A represents a residual substrate protein level of <50%)	B (B represents a residual substrate protein level of >50%)
6.21	CC1(C)CCC(C(=O)N2CC(O)(C(O)c3ccc4c(c3)CN(C3CCC(=O)NC3=O)C4=O)C2)=C(c2ccc(Cl)cc2)C1 (stereo not shown) [GT-05426, 3-(5-((1-(4′-chloro-5,5-dimethyl-3,4,5,6-tetrahydro-[1,1′-biphenyl]-2-carbonyl)-3-hydroxyazetidin-3-yl)(hydroxy)methyl)-1-oxoisoindolin-2-yl)piperidine-2,6-dione]	B (B represents a residual substrate protein level of >50%)	A (A represents a residual substrate protein level of <50%)	A (A represents a residual substrate protein level of <50%)
5.97	O=C1CCC(N2Cc3cc(C(=O)N4CCN(Cc5ccccc5-c5ccc(Cl)cc5)CC4)ccc3C2=O)C(=O)N1 (stereo not shown) [GT-05455, 3-(5-(4-((4′-chloro-[1,1′-biphenyl]-2-yl)methyl)piperazine-1-carbonyl)-1-oxoisoindolin-2-yl)piperidine-2,6-dione]	B (B represents a residual substrate protein level of >50%)	A (A represents a residual substrate protein level of <50%)	B (B represents a residual substrate protein level of >50%)
5.95	O=C1CCC(N2Cc3c(ccc(CN4CCN(C(=O)C5=C(c6ccc(F)cc6)CCCC5)CC4)c3F)C2=O)C(=O)N1 (stereo not shown) [GT-05472, 3-(4-fluoro-5-((4-(4′-fluoro-3,4,5,6-tetrahydro-[1,1′-biphenyl]-2-carbonyl)piperazin-1-yl)methyl)-1-oxoisoindolin-2-yl)piperidine-2,6-dione]	B (B represents a residual substrate protein level of >50%)	A (A represents a residual substrate protein level of <50%)	B (B represents a residual substrate protein level of >50%)
5.94	O=C1CCC(N2Cc3cc(CN4CCN(C(=O)C5=C(c6ccc(F)cc6)CCCC5)CC4)c(F)cc3C2=O)C(=O)N1 (stereo not shown) [GT-05473, 3-(6-fluoro-5-((4-(4′-fluoro-3,4,5,6-tetrahydro-[1,1′-biphenyl]-2-carbonyl)piperazin-1-yl)methyl)-1-oxoisoindolin-2-yl)piperidine-2,6-dione]	B (B represents a residual substrate protein level of >50%)	A (A represents a residual substrate protein level of <50%)	B (B represents a residual substrate protein level of >50%)
6.24	CC1(C)CCC(C(=O)N2CC(O)(C(O)c3ccc4c(c3)CN(C3CCC(=O)NC3=O)C4=O)C2)=C(c2ccc(F)cc2)C1 (stereo not shown) [GT-05490, 3-(5-((1-(4′-fluoro-5,5-dimethyl-3,4,5,6-tetrahydro-[1,1′-biphenyl]-2-carbonyl)-3-hydroxyazetidin-3-yl)(hydroxy)methyl)-1-oxoisoindolin-2-yl)piperidine-2,6-dione]	A (A represents a residual substrate protein level of <50%)	B (B represents a residual substrate protein level of >50%)	B (B represents a residual substrate protein level of >50%)
6.14	CC1(C)CCC(CN2CCCN(Cc3ccc4c(c3)CN(C3CCC(=O)NC3=O)C4=O)CC2)=C(c2ccc(F)cc2)C1 (stereo not shown) [GT-05504, 3-(5-((4-((4′-fluoro-5,5-dimethyl-3,4,5,6-tetrahydro-[1,1′-biphenyl]-2-yl)methyl)-1,4-diazepan-1-yl)methyl)-1-oxoisoindolin-2-yl)piperidine-2,6-dione]	A (A represents a residual substrate protein level of <50%)	B (B represents a residual substrate protein level of >50%)	A (A represents a residual substrate protein level of <50%)

Compound	pIC50 [1]	residual substrate protein level, IKZF1 (IKZF1 protein)	residual substrate protein level, GSPT1 (GSPT1 protein)	residual substrate protein level, IKZF3 (IKZF3 protein)
CC1(C)CCC(CN2CC3CCC(C2)N3Cc2ccc3c(c2)CN(C2CCC(=O)NC2=O)C3=O)=C(c2ccc(F)cc2)C1 (stereo not shown) [GT-05400, 3-(5-((3-((4′-fluoro-5,5-dimethyl-3,4,5,6-tetrahydro-[1,1′-biphenyl]-2-yl)methyl)-3,8-diazabicyclo[3.2.1]octan-8-yl)methyl)-1-oxoisoindolin-2-yl)piperidine-2,6-dione]	6.08	B (B represents a residual substrate protein level of >50%)	A (A represents a residual substrate protein level of <50%)	B (B represents a residual substrate protein level of >50%)
O=C1CCC(N2Cc3cc(C(=O)N4C5CC4CN(C(=O)C4=C(c6ccc(F)cc6)CCCC4)C5)ccc3C2=O)C(=O)N1 (stereo not shown) [GT-05449, 3-(5-(3-(4′-fluoro-3,4,5,6-tetrahydro-[1,1′-biphenyl]-2-carbonyl)-3,6-diazabicyclo[3.1.1]heptane-6-carbonyl)-1-oxoisoindolin-2-yl)piperidine-2,6-dione]	5.77	B (B represents a residual substrate protein level of >50%)	A (A represents a residual substrate protein level of <50%)	B (B represents a residual substrate protein level of >50%)
CC1(C)CCC(CN2CC3CC(C2)N3C(=O)c2ccc3c(c2)CN(C2CCC(=O)NC2=O)C3=O)=C(c2ccc(F)cc2)C1 (stereo not shown) [GT-05450, 3-(5-(3-((4′-fluoro-5,5-dimethyl-3,4,5,6-tetrahydro-[1,1′-biphenyl]-2-yl)methyl)-3,6-diazabicyclo[3.1.1]heptane-6-carbonyl)-1-oxoisoindolin-2-yl)piperidine-2,6-dione]	6.05	B (B represents a residual substrate protein level of >50%)	A (A represents a residual substrate protein level of <50%)	B (B represents a residual substrate protein level of >50%)
